Source: patent US9884821B2, “N1-cyclic amine-N5-substituted biguanide derivatives, methods of preparing the same and pharmaceutical composition comprising the same” (IMMUNOMET THERAPEUTICS INC., priority 2013, dated 2018)

Key:
AMPK = AMPK activation effect (AMPK [pT172] ELISA) in MCF7 cells; type: cell-based, human; settings: 24 hours; for AMPK activation effect (%) 10 μM / AMPK activation effect (%) 50 μM: AMPKα Thr172 phosphorylation relative to untreated cells; for AC150: concentration at which AMPK activation reached 150%
Protocol: ELISA kit (Invitrogen, Catalog No. KH00651).
MCF7 cells were cultured in a DMEM medium supplemented with 10% fatal bovine serum (commercially available from Gibco Life Technologies (US)). Thereafter, the cultured MCF7 cells were put into a 6-well plate with approximately 5×10^5 cells per well, and cultured in an incubator supplied with 5% CO2. Culture media were treated with the derivatives synthesized in the Examples at concentrations of 5, 10 and 50 uM, and then cultured for 24 hours. […] Subsequently, the cells were lysed according to a method presented in the operation manual of the AMPK [pT172] ELISA kit, and 20 μg of a cell lysate was then yielded through protein assay. Thereafter, the AMPK activation effect was obtained by determining a degree of phosphorylation of a 172nd threonine residue (Thr172) of the AMPKα from the cell lysate according to the method presented in the operation manual of the AMPK [pT172] ELISA kit.

HCT116 cells = assay: Effect of inhibiting cancer cell proliferation (MTT) in HCT116 cells; type: cell-based, human; settings: Homo sapiens, HCT-116, 48 h; for inhibition at 100 µM: read-out: Cell growth inhibition (%) at 100 μM
Excerpt: HCT116 cells derived from human colorectal cancer were used, and an effect of inhibiting cancer cell proliferation of the biguanide derivative was confirmed by measuring a concentration value (cell growth inhibition concentration, GIC50) at which cell growth was inhibited by 50% using a 3-(4,5-dimethylthiazol-2-yl)-2,5-diphenyltetrazolium bromide (MTT) reagent.
First, HCT116 cells (purchased from the KCLB) were put on a 96-well plate and cultured in a DMEM medium supplemented with 10% fatal bovine serum (commercially available from Gibco Life Technologies (US)) for 16 hours so that approximately 5,000 cells were counted in each well. Subsequently, to obtain the GIC50 value of each compound, the culture media were treated with 100 μM, 25 μM, 6.25 μM, 1.56 μM or 0.39 μM of the compound, and then cultured for 48 hours. In order to determine whether the cells survived after treatment with the compounds, MTT (commercially available from AMRESCO (US)) was added to the culture media which were then cultured for another 3 hours. Formed formazane crystals were dissolved using dimethyl sulfoxide (DMSO) and the absorbance of the resulting solution was measured at 560 nm. After the 48-hour culture, a ratio of a living cell count on a well plate treated with the compounds synthesized in the Examples to a cell count cultured on a well plate not treated with the compound was indicated as cell viability (%) according to the concentration of each treated compound. The cell viability (%) was used to plot a cell viability curve graph and calculate a concentration (GIC50) value of the compound at which the growth was inhibited by 50%, thereby confirming the inhibition effect of cancer cell proliferation.

Row | Structure (SMILES) | AMPK activation effect (%) 10 μM (AMPK) | AMPK activation effect (%) 50 μM (AMPK) | AC150 (AMPK) | GI50 (HCT116 cells) | inhibition at 100 µM (HCT116 cells)
1 | Cl.N=C(NC(=N)N1CC=CC1)Nc1ccc(OC(F)(F)F)cc1 [Example 4, N1-1,2-dihydropyrrole-N5-(4-trifluoromethoxy)phenyl biguanide hydrochloride] | 201% | 584% | 5.0 µM | 19.1 µM | 99.7%
2 | Cl.N=C(NC(=N)N1CC=CC1)Nc1ccc(C(F)(F)F)cc1 [Example 5, N1-1,2-dihydropyrrole-N5-(4-trifluoromethyl)phenyl biguanide hydrochloride] | 235% | 223% | 2.8 µM | 18 µM | 99.7%
3 | Cl.N=C(NC(=N)N1CC=CC1)Nc1cccc(C(F)(F)F)c1 [Example 6, N1-1,2-dihydropyrrole-N5-(3-trifluoromethyl)phenyl biguanide hydrochloride] | 124% | 136% | >50 µM | 12.9 µM | 99.6%
4 | Cl.N=C(NC(=N)N1CC=CC1)Nc1ccc(F)cc1 [Example 7, N1-1,2-dihydropyrrole-N5-(4-fluoro)phenyl biguanide hydrochloride] | 94% | 109% | >50 µM | > 100 µM | 19.8%
5 | Cl.N=C(NC(=N)N1CC=CC1)Nc1ccc(Cl)cc1 [Example 8, N1-1,2-dihydropyrrole-N5-(4-chloro)phenyl biguanide hydrochloride] | 139% | 515% | 8.3 µM | 42.8 µM | 99.1%
6 | Cl.N=C(NC(=N)N1CC=CC1)Nc1ccc(Br)cc1 [Example 9, N1-1,2-dihydropyrrole-N5-(4-bromo)phenyl biguanide hydrochloride] | 169% | 371% | 9.0 µM | 28.8 µM | 99.5%
7 | Cl.N=C(NC(=N)N1CC=CC1)Nc1ccc(OC(F)(F)F)c(Cl)c1 [Example 10, N1-1,2-dihydropyrrole-N5-(3-chloro,4-trifluoromethoxy)phenyl biguanide hydrochloride] | 408% |  | 1.4 µM | 8.3 µM | 97.9%
8 | Cl.N=C(NC(=N)N1CC=CCC1)Nc1ccc(OC(F)(F)F)c(Cl)c1 [Example 11, N1-1,2,3,6-tetrahydropyridine-N5-(3-chloro,4-trifluoromethoxy) phenyl biguanide hydrochloride] | 637% |  | 1.4 µM | 3 µM | 98%
9 | Cl.N=C(NCc1cccc(C(F)(F)F)c1)NC(=N)N1CC=CC1 [Example 12, N1-1,2-dihydropyrrole-N5-(3-trifluoromethyl)benzyl biguanide hydrochloride] | 97% | 357% | 13.8 µM | 84.8 µM | 53.8%
10 | Cl.N=C(NCc1ccc(C(F)(F)F)cc1)NC(=N)N1CC=CC1 [Example 13, N1-1,2-dihydropyrrole-N5-(4-trifluoromethyl)benzyl biguanide hydrochloride] | 135% | 462% | 9.0 µM | 77.1 µM | 57.8%
11 | Cl.N=C(NCc1cccc(OC(F)(F)F)c1)NC(=N)N1CC=CC1 [Example 14, N1-1,2-dihydropyrrole-N5-(3-trifluoromethoxy)benzyl biguanide hydrochloride] | 151% | 507% | 8.4 µM | 17.5 µM | 98.8%
12 | CC1=CCN(C(=N)NC(=N)Nc2ccc(OC(F)(F)F)cc2)C1.Cl [Example 15, N1-(3-methyl)-1,2-dihydropyrrole-N5-(4-trifluoromethoxy)phenyl biguanide hydrochloride] | 554% |  | 1.6 µM | 10.1 µM | 99.2%
13 | CC1=CCN(C(=N)NC(=N)Nc2ccc(C(F)(F)F)cc2)C1.Cl [Example 16, N1-(3-methyl)-1,2-dihydropyrrole-N5-(4-trifluoromethyl)phenyl biguanide hydrochloride] | 398% |  | 1.7 µM | 10.8 µM | 99.3%
14 | CC1=CCN(C(=N)NC(=N)Nc2ccc(Cl)cc2)C1.Cl [Example 17, N1-(3-methyl)-1,2-dihydropyrrole-N5-(4-chloro)phenyl biguanide hydrochloride] | 208% |  | 4.7 µM | 13.9 µM | 99.7%
15 | CC1=CCN(C(=N)NC(=N)Nc2ccc(Cl)c(C(F)(F)F)c2)C1.Cl [Example 18, N1-(3-methyl)-1,2-dihydropyrrole-N5-(4-chloro, 3-trifluoromethyl)phenyl biguanide hydrochloride] |  |  | 0.81 µM | 2.6 µM | 99.5%
16 | CC1=CCN(C(=N)NC(=N)Nc2cccc(C(F)(F)F)c2)C1.Cl [Example 19, N1-(3-methyl)-1,2-dihydropyrrole-N5-(3-trifluoromethyl)phenyl biguanide hydrochloride] | 306% |  | 1.5 µM | 9.1 µM | 99.6%
17 | CC1=CCN(C(=N)NC(=N)Nc2ccc(F)cc2)C1.Cl [Example 20, N1-(3-methyl)-1,2-dihydropyrrole-N5-(4-fluoro)phenyl biguanide hydrochloride] | 83% | 172% | 38.3 µM | 54.8 µM | 93.1%
18 | CC1=CCN(C(=N)NC(=N)Nc2ccc(Br)cc2)C1.Cl [Example 21, N1-(3-methyl)-1,2-dihydropyrrole-N5-(4-bromo)phenyl biguanide hydrochloride] | 156% |  | 11.9 µM | 10.4 µM | 99.4%
19 | COc1ccc(NC(=N)NC(=N)N2CC=C(C)C2)cc1.Cl [Example 22, N1-(3-methyl)-1,2-dihydropyrrole-N5-(4-methoxyl)phenyl biguanide hydrochloride] | 116% | 209% | 24.5 µM | 18.6 µM | 37.1%
20 | COc1ccc(NC(=N)NC(=N)N2CC=C(C)C2)cc1OC.Cl [Example 23, N1-(3-methyl)-1,2-dihydropyrrole-N5-(3,4-dimethoxy)phenyl biguanide hydrochloride] | 57% | 279% | 21.3 µM | 89.9 µM | 29.5%
21 | CC1=CCN(C(=N)NC(=N)Nc2cccc(OC(F)(F)F)c2)C1.Cl [Example 25, N1-(3-methyl)-1,2-dihydropyrrole-N5-(3-trifluoromethoxy)phenyl biguanide hydrochloride] | 376% |  | 2.2 µM | 4.9 µM | 96.6%
22 | CC1=CCN(C(=N)NC(=N)NCc2ccc(C(F)(F)F)cc2)C1.Cl [Example 26, N1-(3-methyl)-1,2-dihydropyrrole-N5-(4-trifluoromethyl)benzyl biguanide hydrochloride] | 443% | 358% | 0.68 µM | 8.2 µM | 96.7%
23 | CC1=CCN(C(=N)NC(=N)NCc2ccc(Cl)c(C(F)(F)F)c2)C1.Cl [Example 27, N1-(3-methyl)-1,2-dihydropyrrole-N5-(4-chloro, 3-trifluoromethyl)benzyl biguanide hydrochloride] | 119% | 316% | 13.5 µM | 33.5 µM | 96.6%
